Test results: patent US8722884B2, “Pyrimidine derivatives for the treatment of abnormal cell growth” (Verastem, Inc., priority 2005, dated 2014)
Values after ≈ are worked out from the molar mass of the structure shown. Where two headings read alike, the source gives them in different places. One block for each compound: values may come before it.

Legend:
Assay type in all cases: physicochemical
[1] = VTI moisture adsorption/desorption (hygroscopicity); settings: for Hygroscopicity assessment in words: VTI, up to 90% RH; for Hygroscopic moisture gain / weight gain at 90% RH (VTI): flow-through VTI, 25 C; for Hygroscopic moisture gain / weight gain at 90% RH (VTI) / Hygroscopicity (by weight) at 90% relative humidity at ambient temperature: 90% RH
Source text: The salts and solvates of the present invention can be further characterized by VTI water vapor adsorption to measure hygroscopicity. […] Other methods of analysis are described in more detail in the Examples.
This monobesylate salt of Formula I appeared as fine crystalline particles of moderate to high birefringence with irregularly-shaped morphology. The size of the particles ranged from approximately […] to 50 mm in diameter, with some aggregates up to about 200 mm in diameter. The material was tested using DSC at a heating rate of five degrees/minute, FIG. 1(b). A sharp melting endotherm with onset temperature of 254° C. was observed. Minor front tailing for the endotherm was also noted. The material was tested by TGA at a heating rate of five degrees/minute, FIG. 1(c). No loss in weight was observed up to the melting onset temperature (˜250)° C. […] These solvents were thus likely entrained by the crystal and were not released until melting. […] The dynamic moisture sorption was evaluated using a flow-through VTI apparatus at 25° C. The sample was initially dried at ˜2% RH for maximum of two hours, followed by a moisture adsorption ramp from 10% RH to 90%, then a desorption ramp back down to 10% RH. Initial drying removed 0.08% by weight, followed by a maximum moisture gain of 0.09% at 90% RH. Thus, this complex was non-hygroscopic.
The sample was tested in flow-through VTI with relative humidity ramp from 0 to 90%, then a desorption ramp back down to 10%1 RH at 25 C. […] The monomesylate was analyzed for elemental composition of carbon, hydrogen, nitrogen, fluorine and sulfur. The results from analysis met the stoichiometry of a mono-mesylate salt containing 1% THF.
The hemihydrate tosylate salt of Formula I consisted of fine birefringent aggregated needles and lathes. This sample was crystalline by PXRD. The thermal profile of this sample was obtained by heating from 30-300 C at 5 C/min. […] The volatile content of this sample was obtained by heating from 30-225 C at 5 C/min. The total volatile content was 1.4%, and consisted of water and ethanol by IR. The sample was tested in flow-through VTI with relative humidity ramp from 0 to 90% at 25 C.

pKa in solution = settings: weak base
Source text: (§1) Solubility increased in acidic media, with a solubility of 1 mgA/ml observed in pH 2 buffer. […] Solubility determined in several common organic solvents, such as ethanol and acetone, was about 200 mgA/ml. The following table summarizes the physical and chemical properties of the monobesylate salt of Formula I: […]

[2] = Solubility in aqueous media and organic solvents
Source text: as §1

[3] = Solid-state stability at 70 C/75% RH
Procedure: The monobesylate salt of Formula I (m. wt. 665.67), Form A, was a white crystalline solid with irregularly-shaped particle morphology ranging from approximately […] in diameter. This anhydrous form melted (DSC, Tonset) at 254° C. with decomposition.

[4] = listed as monobesylate salt of Formula I

- Hygroscopicity assessment in words [1, 4]: non-hygroscopic
- Hygroscopic moisture gain / weight gain at 90% RH (VTI) [1, 4]: 0.09%
- pKa (pKa in solution): 4.58
- Acetone solubility ([2]; acetone): 206 ugA/ml
- Aqueous buffer pH 1.4 solubility ([2]; aqueous buffer pH 1.4): 1162 ugA/ml
- Aqueous buffer pH 7 solubility ([2]; aqueous buffer pH 7): 4 ugA/ml
- solubility ([2]; aqueous buffer, heading: Solubility in unbuffered water, unbuffered water, pH 2.65): 369 µg/mL (≈ 727 µM)
- solubility ([2]; aqueous buffer, pH 2 buffer, read-out: Solubility in pH 2 buffer): 1000 µg/mL (≈ 1970 µM)
- solubility ([2]; aqueous media, water, aqueous, above pH 5, read-out: Aqueous solubility above pH 5): ~5000 µg/mL (≈ 9850 µM)
- Ethanol solubility ([2]; ethanol): 260 ugA/ml
- Solubility in common organic solvents, such as ethanol and acetone ([2]; organic solvents): about 200 mgA/ml
- Unbuffered water solubility (pH 2.65) ([2]; unbuffered water, pH 2.65 (table)): 369 ugA/ml
- Solid-state stability, 3 weeks at 70 C./75% RH (purity by HPLC area % relative to room temperature control) ([3]; 3 weeks, 70 C/75% RH): >99.9% (purity by HPLC
SMILES: CN(c1ncccc1CNc1nc(Nc2ccc3c(c2)CC(=O)N3)ncc1C(F)(F)F)S(C)(=O)=O [Example 1, N-Methyl-N-(3-{[2-(2-oxo-2,3-dihydro-1H-indol-5-ylamino)-5-trifluoromethyl-pyrimidin-4-ylamino]-methyl}-pyridin-2-yl)-methanesulfonamide]
- Solid-state stability in words ([3]; three weeks exposure to 70 C/75% RH): chemically and physically stable in the solid-state

- Hygroscopicity (by weight) at 90% relative humidity at ambient temperature [1]: 0.16%
- Hygroscopic moisture gain / weight gain at 90% RH (VTI) ([1]; listed as besylate salt of Formula I): 0.16%
SMILES: CN(c1ncccc1CNc1nc(Nc2ccc3c(c2)CC(=O)N3)ncc1C(F)(F)F)S(C)(=O)=O [Example 2, N-Methyl-N-(3-{[2-(2-oxo-2,3-dihydro-1H-indol-5-ylamino)-5-trifluoromethyl-pyrimidin-4-ylamino]-methyl}-pyridin-2-yl)-methanesulfonamide]

- Hygroscopicity (by weight) at 90% relative humidity at ambient temperature [1]: 1.4%
- Hygroscopicity assessment in words ([1]; listed as monomesylate): kinetically non-hygroscopic
- Hygroscopic moisture gain / weight gain at 90% RH (VTI) ([1]; listed as monomesylate): 1.4%
SMILES: CN(c1ncccc1CNc1nc(Nc2ccc3c(c2)CC(=O)N3)ncc1C(F)(F)F)S(C)(=O)=O [Example 3, N-Methyl-N-(3-{[2-(2-oxo-2,3-dihydro-1H-indol-5-ylamino)-5-trifluoromethyl-pyrimidin-4-ylamino]-methyl}-pyridin-2-yl)-methanesulfonamide]

- Hygroscopicity (by weight) at 90% relative humidity at ambient temperature [1]: 0.6%
- Hygroscopic moisture gain / weight gain at 90% RH (VTI) ([1]; listed as tosylate salt of Formula I): 0.6%
SMILES: CN(c1ncccc1CNc1nc(Nc2ccc3c(c2)CC(=O)N3)ncc1C(F)(F)F)S(C)(=O)=O [Example 4, N-Methyl-N-(3-{[2-(2-oxo-2,3-dihydro-1H-indol-5-ylamino)-5-trifluoromethyl-pyrimidin-4-ylamino]-methyl}-pyridin-2-yl)-methanesulfonamide]

- Hygroscopicity (by weight) at 90% relative humidity at ambient temperature [1]: 2.7%
SMILES: CN(c1ncccc1CNc1nc(Nc2ccc3c(c2)CC(=O)N3)ncc1C(F)(F)F)S(C)(=O)=O [Example 5, N-Methyl-N-(3-{[2-(2-oxo-2,3-dihydro-1H-indol-5-ylamino)-5-trifluoromethyl-pyrimidin-4-ylamino]-methyl}-pyridin-2-yl)-methanesulfonamide]

- Hygroscopicity (by weight) at 90% relative humidity at ambient temperature [1]: 1.4%
SMILES: CN(c1ncccc1CNc1nc(Nc2ccc3c(c2)CC(=O)N3)ncc1C(F)(F)F)S(C)(=O)=O [Example 6, N-Methyl-N-(3-{[2-(2-oxo-2,3-dihydro-1H-indol-5-ylamino)-5-trifluoromethyl-pyrimidin-4-ylamino]-methyl}-pyridin-2-yl)-methanesulfonamide]
